How the values were obtained:
Assay in all cases: relative viability (nuclei count vs DMSO), 5 days (fraction); higher = more cells survive
[1] = compound: C[C@@]1(C(=O)Nc2ccc(F)nc2)CCCN1c1nc(Nc2cc(C3CC3)n[nH]2)c2cccn2n1 + Cc1nc(Nc2ncc(C(=O)Nc3c(C)cccc3Cl)s2)cc(N2CCN(CCO)CC2)n1 [Dasatinib] (partner 0.075 µM)
Method in brief: (§1)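 Medians of duplicate plates are given as relative viability. That measure is the nuclei count in treated wells divided by the count in vehicle wells. Counts were taken on 4× images of lung cancer cell lines in 1536-well plates, 5 days after pin-tool dosing the day after seeding with one drug alone or a fixed anchor-drug dose plus five library-drug doses (not always all listed) in √10 steps.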

Motesanib + Alpelisib = compound: CC1(C)CNc2cc(NC(=O)c3cccnc3NCc3ccncc3)ccc21 [Motesanib] + Cc1nc(NC(=O)N2CCC[C@H]2C(N)=O)sc1-c1ccnc(C(C)(C)C(F)(F)F)c1 [Alpelisib] (partner 2 µM)
Method in brief: as §1

Motesanib + Olaparib = compound: CC1(C)CNc2cc(NC(=O)c3cccnc3NCc3ccncc3)ccc21 [Motesanib] + O=C(c1cc(Cc2n[nH]c(=O)c3ccccc23)ccc1F)N1CCN(C(=O)C2CC2)CC1 [Olaparib] (partner 8 µM)
Method in brief: as §1

Motesanib + Pemetrexed = compound: CC1(C)CNc2cc(NC(=O)c3cccnc3NCc3ccncc3)ccc21 [Motesanib] + Nc1nc2[nH]cc(CCc3ccc(C(=O)N[C@@H](CCC(=O)O)C(=O)O)cc3)c2c(=O)[nH]1 [Pemetrexed] (partner 0.2 µM)
Method in brief: as §1

UMC-11
relative viability ([1]; first compound 0.04 µM): 0.478
relative viability ([1]; first compound 0.1265 µM): 0.471
relative viability ([1]; first compound 0.4 µM): 0.399
relative viability ([1]; first compound 1.265 µM): 0.278
relative viability (Motesanib + Alpelisib; first compound 0.01 µM): 0.923
relative viability (Motesanib + Alpelisib; first compound 0.03162 µM): 0.973
relative viability (Motesanib + Alpelisib; first compound 0.1 µM): 0.981
relative viability (Motesanib + Alpelisib; first compound 0.3162 µM): 1.03
relative viability (Motesanib + Alpelisib; first compound 1 µM): 1.03
relative viability (Motesanib + Olaparib; first compound 0.01 µM): 0.395
relative viability (Motesanib + Olaparib; first compound 0.03162 µM): 0.356
relative viability (Motesanib + Olaparib; first compound 0.1 µM): 0.367
relative viability (Motesanib + Olaparib; first compound 0.3162 µM): 0.378
relative viability (Motesanib + Olaparib; first compound 1 µM): 0.34
relative viability (Motesanib + Pemetrexed; first compound 0.01 µM): 0.834
relative viability (Motesanib + Pemetrexed; first compound 0.03162 µM): 0.696
relative viability (Motesanib + Pemetrexed; first compound 0.1 µM): 0.575
relative viability (Motesanib + Pemetrexed; first compound 0.3162 µM): 0.608
relative viability (Motesanib + Pemetrexed; first compound 1 µM): 0.556

Source: the supplement of paper PMC10307832
